“Also recorded” adds a separate entry of the source.
Key:
ob/ob mice [1] = assay: Long-term pharmacological inhibition of Kv1.3 in ob/ob mice: food consumption and body weight; assay type: in vivo, mouse
Procedure: Long-term pharmacological inhibition of Kv1.3: Ob/ob mice were injected intraperitoneally with margatoxin or PBS (n=5 for each group) on days 0, 5, and 16 as described herein. Food consumption was monitored for 30 days, and weights were measured at the end of 30 days.

L6 cells = assay: D-glucose uptake in L6 cells; assay type: cell-based, rat
Procedure: D-glucose uptake in L6 cells: L6 cells were maintained in Dulbecco's Modified Eagle's Medium (DMEM) containing 10% fetal bovine serum (FBS) and 1% penicillin-streptomycin in T-75 flasks at 37° C. and 5% CO2. To promote fusion into myotubules and quiescence, L6 cells were seeded onto 10 cm^2 flasks at a density of 3000 cells/cm^2 in DMEM containing 2% FBS. Myotube formation was determined by the percentage of nuclei in multinucleated cells. Glucose uptake assays were performed when 80-90% of the myoblasts fused into myotubes. Cells were serum starved for 3 hours in DMEM containing 0.2% bovine serum albumin, washed twice in PBS with 0.1 mM CaCl2, 0.1 MgCl2, 10 mM HEPES, pH 7.4. […] 2-deoxy-(^3H)D-glucose (1 μCi/ml, 10 μM/liter) uptake was measured in triplicate over a 10 minute period. The reaction was terminated by washing with ice-cold PBS. Non-specific uptake was determined by adding 10 mM phloretin and was subtracted from total uptake. Cells were lysed in 0.1 N KOH, and glucose uptake was measured by liquid scintillation (Packard BioScience, Meriden Conn.). […] was measured by Bradford Assay.

C57BL/6 mice = assay: Insulin sensitivity (blood glucose after IP human insulin) in wild type C57BL/6 mice given margatoxin; assay type: in vivo, mouse
Procedure: Plasma insulin levels and insulin sensitivity: Seven-week old C57BL6/6J male mice (n=5) were given 0.1 μg/gram body weight margatoxin 20 hours prior to study via IP injection. Controls (n=5) were sham injected with phosphate buffered saline (PBS). Two hours prior to study a second injection of margatoxin was administered to the treated experimental group. At t=0, both groups received human insulin as described previously. Blood glucose measurements were performed at the times indicated.

ob/ob mice [2] = assay: Insulin sensitivity (blood glucose after IP human insulin) in non-fasting ob/ob mice given toxin; assay type: in vivo, mouse; conditions: for insulin sensitivity: non-fasting ob/ob mice, toxin IP 30 minutes before insulin
Procedure: Non-fasting ob/ob (obese) mice (n=5), were given margatoxin 30 minutes prior to study as described elsewhere herein. Age-matched control ob/ob mice were sham injected with PBS. Both groups were given human insulin and blood glucose levels were monitored as described previously.
Non-fasting ob/ob (obese) mice (n=5), were given kaliotoxin (Alomone, Israel) 30 minutes prior to study as described elsewhere herein. Age-matched control ob/ob mice were sham injected with PBS. Both groups were given human insulin and blood glucose levels were monitored as described previously.

Kv1.3 = Kv1.3 (Homo sapiens, UniProt P22001); conditions: cited from earlier work; for inhibition of Kv1.3 activity: therapeutic levels
Kv1.3, sequence (P22001 whole entry): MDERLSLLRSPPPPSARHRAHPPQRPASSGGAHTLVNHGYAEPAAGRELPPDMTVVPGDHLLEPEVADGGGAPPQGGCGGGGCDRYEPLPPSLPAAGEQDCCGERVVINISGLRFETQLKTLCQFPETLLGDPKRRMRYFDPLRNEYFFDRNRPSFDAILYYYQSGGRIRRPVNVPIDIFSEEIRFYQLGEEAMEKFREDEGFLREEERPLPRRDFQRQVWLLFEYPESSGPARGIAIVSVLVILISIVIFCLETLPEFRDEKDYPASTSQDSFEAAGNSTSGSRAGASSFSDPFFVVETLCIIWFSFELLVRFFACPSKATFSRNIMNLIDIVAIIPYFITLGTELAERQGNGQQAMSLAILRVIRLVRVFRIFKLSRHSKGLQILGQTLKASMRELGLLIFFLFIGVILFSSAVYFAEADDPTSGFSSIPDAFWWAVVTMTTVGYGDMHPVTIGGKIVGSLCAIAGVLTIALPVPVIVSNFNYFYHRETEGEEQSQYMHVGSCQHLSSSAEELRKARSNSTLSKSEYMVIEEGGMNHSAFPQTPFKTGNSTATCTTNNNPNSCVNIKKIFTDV

db/db mice = assay: Insulin sensitivity (blood glucose after IP human insulin) in fasting db/db mice given margatoxin; assay type: in vivo, mouse
Procedure: Fasting db/db (diabetic) mice (n=5), were given margatoxin 30 minutes prior to study as described elsewhere herein. Age-matched control db/db mice were sham injected with PBS. Both groups were given human insulin and blood glucose levels were monitored as described previously.

Kv1.2 = Kv1.2 (Homo sapiens, UniProt P16389); conditions: cited from earlier work
Kv1.2, sequence (P16389 whole entry): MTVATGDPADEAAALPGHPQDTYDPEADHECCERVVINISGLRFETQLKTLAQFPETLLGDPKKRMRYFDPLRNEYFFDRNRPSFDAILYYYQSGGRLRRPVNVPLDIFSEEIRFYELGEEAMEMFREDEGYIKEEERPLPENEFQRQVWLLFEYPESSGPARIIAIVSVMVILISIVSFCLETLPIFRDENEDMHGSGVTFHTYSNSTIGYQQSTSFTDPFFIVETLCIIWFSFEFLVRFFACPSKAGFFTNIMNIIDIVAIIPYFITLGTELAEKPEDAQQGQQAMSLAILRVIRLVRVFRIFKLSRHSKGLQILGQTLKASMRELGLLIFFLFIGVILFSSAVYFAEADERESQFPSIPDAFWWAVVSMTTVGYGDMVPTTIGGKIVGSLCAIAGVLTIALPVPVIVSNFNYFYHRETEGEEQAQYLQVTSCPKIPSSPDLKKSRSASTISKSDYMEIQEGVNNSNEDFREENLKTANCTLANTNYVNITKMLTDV

[3] = therapeutic dosages; cited from earlier work
Kv1.1 = Kv1.1 (Homo sapiens, UniProt Q09470); conditions: cited from earlier work
Kv1.1, sequence (Q09470 whole entry): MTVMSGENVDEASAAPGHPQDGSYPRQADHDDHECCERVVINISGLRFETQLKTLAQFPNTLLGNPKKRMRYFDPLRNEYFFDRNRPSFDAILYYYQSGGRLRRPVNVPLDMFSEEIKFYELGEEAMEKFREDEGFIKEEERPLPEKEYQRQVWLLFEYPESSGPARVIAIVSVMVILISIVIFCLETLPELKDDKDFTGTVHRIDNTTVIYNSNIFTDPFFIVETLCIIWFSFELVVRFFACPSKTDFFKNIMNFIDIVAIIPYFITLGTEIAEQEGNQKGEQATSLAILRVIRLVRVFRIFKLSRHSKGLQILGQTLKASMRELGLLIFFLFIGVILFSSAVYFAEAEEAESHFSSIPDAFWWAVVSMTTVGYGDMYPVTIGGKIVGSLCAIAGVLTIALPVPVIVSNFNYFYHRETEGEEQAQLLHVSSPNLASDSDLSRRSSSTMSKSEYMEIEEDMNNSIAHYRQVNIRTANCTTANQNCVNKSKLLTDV

margatoxin (TIINVKCTSPKQCLPPCKAQFGQSAGAKCMNGKCKCYPH)
body weight vs controls (ob/ob mice [1]; ob/ob mice treated long term with margatoxin, IP days 0, 5, 16): weighed significantly less than controls
body weight after margatoxin treatment ceased at day 16 (ob/ob mice [1]; ob/ob mice, weights assessed to day 36): began to gain weight thereafter
glucose uptake in L6 cells, margatoxin together with insulin (L6 cells; 200 nM insulin and 250 nM margatoxin, vs either alone or neither): significantly increased glucose uptake; also recorded: additive to that of insulin
glucose uptake in L6 cells (L6 cells; 2-deoxy-D-glucose, phloretin-sensitive uptake, 0.2-250 nM margatoxin): increases uptake of glucose in L6 cells in a dose dependent manner; also recorded: significant increase in phloretin-sensitive glucose uptake
EC50 (L6 cells; L6 cells, read-out: concentration necessary for 1/2 maximal increase in glucose uptake): 53 nM
insulin sensitivity (C57BL/6 mice; C57BL/6 mice, 0.1 μg/gram margatoxin IP, vs sham (PBS) injected controls): increased insulin sensitivity
fasting blood glucose (C57BL/6 mice; wild type C57BL/6 mice, margatoxin injection prior to study, vs PBS): lower fasting blood glucose
blood glucose in response to insulin (C57BL/6 mice; wild type C57BL/6 mice, toxin-treated vs PBS): significantly lower blood glucose in response to insulin
insulin sensitivity (ob/ob mice [2]; vs PBS): significantly increased insulin sensitivity; also recorded: significantly more sensitive to insulin
time after insulin at which difference in glucose level was evident (ob/ob mice [2]; ob/ob mice, margatoxin vs PBS): ≤ 30 min
time for which difference in glucose level persisted (ob/ob mice [2]; ob/ob mice, margatoxin vs PBS): at least 3 hours
fall in blood glucose in response to insulin administration, greater than in control mice (ob/ob mice [2]; ob/ob mice, single injection of margatoxin, vs PBS): 50%
inhibition of Kv1.3 (Kv1.3): fairly specific and potent inhibitor of Kv1.3
fall in blood glucose of mice receiving insulin (db/db mice; db/db mice, margatoxin and insulin vs PBS and insulin): significantly greater fall in blood glucose
time at which difference in glucose levels was evident (db/db mice; db/db mice, margatoxin vs PBS): ≤ 30 min
time for which difference in glucose levels persisted (db/db mice; db/db mice, margatoxin vs PBS): up to 4.5 hours
sensitivity to insulin (db/db mice; fasting db/db mice, margatoxin IP 30 minutes before insulin, vs PBS): significant increase in sensitivity to insulin
inhibition of Kv1.2 (Kv1.2): also blocks Kv1.2

COc1ccc(CCN(C)CCCC(C#N)(c2ccc(OC)c(OC)c2)C(C)C)cc1OC (stereo not drawn) [verapamil]
inhibition of Kv1.3 activity (Kv1.3): inhibit Kv1.3 activity
insulin sensitivity [3]: increase insulin sensitivity

kaliotoxin
IC50 (Kv1.1): 40 nM
blood glucose, toxin and insulin vs insulin only (ob/ob mice [2]; animals treated with kaliotoxin and insulin): significantly lower blood glucose
insulin sensitivity (ob/ob mice [2]; vs PBS): significantly increased insulin sensitivity
IC50 (Kv1.3): 0.6 nM
inhibition of Kv1.2 (Kv1.2): but not Kv1.2

CNCCC(Oc1ccc(C(F)(F)F)cc1)c1ccccc1 (stereo not drawn) [fluxetine]
inhibition of Kv1.3 activity (Kv1.3): inhibit Kv1.3 activity
insulin sensitivity [3]: increase insulin sensitivity
